Reference: ChEMBL document CHEMBL3044942, “Unexpected plant-systemic insecticidal properties of alkylene-tethered bis-imidacloprid derivatives” (J Pestic Sci, 2010)
Calls of active or inactive are those of the source. No cut-off for these calls is given here.

Experiments:
Myzus persicae [1] = assay: Insecticidal activity against Myzus persicae (green peach aphid) in compound treated chinese cabbage leaves assessed as mortality after foliar dipping at 10 mg/l at 25 degC measured after 120 hr; type: functional
Spodoptera litura [2] = assay: Insecticidal activity against Spodoptera litura in compound treated chinese cabbage leaves assessed as mortality after foliar dipping at 10 mg/l at 25 degC measured after 120 hr; type: functional
Myzus persicae [3] = assay: Insecticidal activity against Myzus persicae (green peach aphid) in compound treated chinese cabbage leaves assessed as mortality after foliar dipping at 100 mg/l at 25 degC measured after 120 hr; type: functional
Spodoptera litura [4] = assay: Insecticidal activity against Spodoptera litura in compound treated chinese cabbage leaves assessed as mortality after foliar dipping at 100 mg/l at 25 degC measured after 120 hr; type: functional
[5] = Octanol-water partition coefficient, log P of the compound; type: physicochemical
Nilaparvata lugens [6] = assay: Insecticidal activity against Nilaparvata lugens (brown plant hoppers) in rice seedlings root dipped in compound assessed as mortality at 100 mg/l measured after 14 days of drench application by systemic insecticidal activity assay; type: functional, organism-based
Nilaparvata lugens [7] = assay: Insecticidal activity against Nilaparvata lugens (brown planthoppers) in rice seedlings root dipped in compound assessed as mortality at 100 mg/l measured after 3 days of drench application by systemic insecticidal activity assay; type: functional, organism-based
Myzus persicae [8] = assay: Insecticidal activity against Myzus persicae (green peach aphid) in compound treated chinese cabbage leaves assessed as mortality at 10 mg/l measured on day 3 after foliar treatment by residual insecticidal activity assay; type: functional, organism-based
Plutella xylostella [9] = assay: Insecticidal activity against Plutella xylostella (diamondback moth) in compound treated cabbage leaves assessed as mortality at 10 mg/l measured on day 3 after foliar treatment by residual insecticidal activity assay; type: functional, organism-based
Nilaparvata lugens [10] = assay: Insecticidal activity against Nilaparvata lugens (brown planthoppers) in rice seedlings root dipped in compound assessed as mortality at 100 mg/l measured after 7 days of drench application by systemic insecticidal activity assay; type: functional, organism-based
Nilaparvata lugens [11] = assay: Insecticidal activity against Nilaparvata lugens (brown planthopper) in rice seedlings assessed as mortality measured on day 3 after foliar treatment by residual insecticidal activity assay; type: functional, organism-based
Plutella xylostella [12] = assay: Insecticidal activity against Plutella xylostella (diamondback moth) assessed as mortality after soil treatment on third day of infestation; type: functional, organism-based
Myzus persicae [13] = assay: Insecticidal activity against Myzus persicae (green peach aphid) assessed as mortality after soil treatment at 25 degC measured after 11th day of infestation; type: functional, organism-based

O=[N+]([O-])NC1=NCCN1Cc1ccc(Cl)nc1 [IMIDACLOPRID]
mortality at 10 µg/mL (Myzus persicae [1]): 100% | mortality at 10 µg/mL (Spodoptera litura [2]): 17% | mortality at 100 µg/mL (Myzus persicae [3]): 100% | mortality at 100 µg/mL (Spodoptera litura [4]): 97% | logP [5]: 1.88

O=[N+]([O-])/N=C1\N(CCCCCN2CCN(Cc3ccc(Cl)nc3)/C2=N/[N+](=O)[O-])CCN1Cc1ccc(Cl)nc1
mortality at 10 µg/mL (Myzus persicae [1]): 0% | mortality at 10 µg/mL (Spodoptera litura [2]): 0% | mortality at 100 µg/mL (Myzus persicae [3]): 13% | mortality at 100 µg/mL (Spodoptera litura [4]): 40% | logP ([5]; read-out: logP): 4.77

O=[N+]([O-])/N=C1\N(CCCCCCCCCN2CCN(Cc3ccc(Cl)nc3)/C2=N/[N+](=O)[O-])CCN1Cc1ccc(Cl)nc1
mortality at 10 µg/mL (Myzus persicae [1]): 77% | mortality at 10 µg/mL (Spodoptera litura [2]): 3% | mortality at 100 µg/mL (Myzus persicae [3]): 93% | mortality at 100 µg/mL (Spodoptera litura [4]): 57% | logP ([5]; read-out: logP): 5.57

O=[N+]([O-])/N=C1\N(CCCCCCCCN2CCN(Cc3ccc(Cl)nc3)/C2=N/[N+](=O)[O-])CCN1Cc1ccc(Cl)nc1
mortality at 10 µg/mL (Myzus persicae [1]): 83% | mortality at 10 µg/mL (Spodoptera litura [2]): 27% | mortality at 100 µg/mL (Myzus persicae [3]): 97% | mortality at 100 µg/mL (Spodoptera litura [4]): 80% | logP ([5]; read-out: logP): 5.37

O=[N+]([O-])/N=C1/N(Cc2ccc(Cl)nc2)CCN1Cc1cccc(CN2CCN(Cc3ccc(Cl)nc3)/C2=N/[N+](=O)[O-])c1
mortality at 10 µg/mL (Myzus persicae [1]): 33% | mortality at 10 µg/mL (Spodoptera litura [2]): 3% | mortality at 100 µg/mL (Myzus persicae [3]): 57% | mortality at 100 µg/mL (Spodoptera litura [4]): 47% | logP ([5]; read-out: logP): 5.69

O=[N+]([O-])/N=C1\N(CCCCCCN2CCN(Cc3ccc(Cl)nc3)/C2=N/[N+](=O)[O-])CCN1Cc1ccc(Cl)nc1
mortality at 10 µg/mL (Myzus persicae [1]): 10% | mortality at 10 µg/mL (Spodoptera litura [2]): 27% | mortality at 100 µg/mL (Myzus persicae [3]): 23% | inhibition (Nilaparvata lugens [6]): Active | inhibition (Nilaparvata lugens [7]): Active | Activity (Myzus persicae [8]): Active | mortality at 100 µg/mL (Spodoptera litura [4]): 83% | logP ([5]; read-out: logP): 4.97 | Activity (Plutella xylostella [9]): Active | inhibition (Nilaparvata lugens [10]): Active | Activity (Nilaparvata lugens [11]): Active

O=[N+]([O-])/N=C1\N(Cc2ccc(CN3CCN(Cc4ccc(Cl)nc4)/C3=N/[N+](=O)[O-])cc2)CCN1Cc1ccc(Cl)nc1
mortality at 10 µg/mL (Myzus persicae [1]): 97% | mortality at 10 µg/mL (Spodoptera litura [2]): 3% | mortality at 100 µg/mL (Myzus persicae [3]): 97% | mortality at 100 µg/mL (Spodoptera litura [4]): 47% | logP ([5]; read-out: logP): 5.69

O=[N+]([O-])/N=C1\N(CCCN2CCN(Cc3ccc(Cl)nc3)/C2=N/[N+](=O)[O-])CCN1Cc1ccc(Cl)nc1
mortality at 10 µg/mL (Myzus persicae [1]): 13% | mortality at 10 µg/mL (Spodoptera litura [2]): 13% | mortality at 100 µg/mL (Myzus persicae [3]): 27% | mortality at 100 µg/mL (Spodoptera litura [4]): 80% | logP ([5]; read-out: logP): 4.35

O=[N+]([O-])/N=C1\N(CCN2CCN(Cc3ccc(Cl)nc3)/C2=N/[N+](=O)[O-])CCN1Cc1ccc(Cl)nc1
mortality at 10 µg/mL (Myzus persicae [1]): 23% | mortality at 10 µg/mL (Spodoptera litura [2]): 0% | mortality at 100 µg/mL (Myzus persicae [3]): 97% | mortality at 100 µg/mL (Spodoptera litura [4]): 20% | logP ([5]; read-out: logP): 4.13

O=[N+]([O-])/N=C1\N(CCCCCCCN2CCN(Cc3ccc(Cl)nc3)/C2=N/[N+](=O)[O-])CCN1Cc1ccc(Cl)nc1
mortality at 10 µg/mL (Myzus persicae [1]): 93% | mortality at 10 µg/mL (Spodoptera litura [2]): 23% | inhibition (Plutella xylostella [12]): Active | inhibition (Myzus persicae [13]): Active | mortality at 100 µg/mL (Myzus persicae [3]): 97% | inhibition (Nilaparvata lugens [6]): Active | inhibition (Nilaparvata lugens [7]): Active | Activity (Myzus persicae [8]): Active | mortality at 100 µg/mL (Spodoptera litura [4]): 85% | logP ([5]; read-out: logP): 5.18 | Activity (Plutella xylostella [9]): Active | inhibition (Nilaparvata lugens [10]): Active | Activity (Nilaparvata lugens [11]): Active

O=[N+]([O-])/N=C1\N(CCCCCCCCCCCCN2CCN(Cc3ccc(Cl)nc3)/C2=N/[N+](=O)[O-])CCN1Cc1ccc(Cl)nc1
mortality at 10 µg/mL (Myzus persicae [1]): 19% | mortality at 10 µg/mL (Spodoptera litura [2]): 0% | mortality at 100 µg/mL (Myzus persicae [3]): 50% | mortality at 100 µg/mL (Spodoptera litura [4]): 0% | logP ([5]; read-out: logP): 6.14

O=[N+]([O-])/N=C1\N(CCCCN2CCN(Cc3ccc(Cl)nc3)/C2=N/[N+](=O)[O-])CCN1Cc1ccc(Cl)nc1
mortality at 10 µg/mL (Myzus persicae [1]): 0% | mortality at 10 µg/mL (Spodoptera litura [2]): 7% | mortality at 100 µg/mL (Myzus persicae [3]): 7% | mortality at 100 µg/mL (Spodoptera litura [4]): 57% | logP ([5]; read-out: logP): 4.56

O=[N+]([O-])/N=C1\N(CCCCCCCCCCN2CCN(Cc3ccc(Cl)nc3)/C2=N/[N+](=O)[O-])CCN1Cc1ccc(Cl)nc1
mortality at 10 µg/mL (Myzus persicae [1]): 27% | mortality at 10 µg/mL (Spodoptera litura [2]): 0% | mortality at 100 µg/mL (Myzus persicae [3]): 43% | mortality at 100 µg/mL (Spodoptera litura [4]): 27% | logP ([5]; read-out: logP): 5.76
